Tests used:
[1] = system: Pan T-cells (isolated from human PBMCs); assay: T-cell cytokine release assay; type: cell-based; settings: anti-CD3 stimulated T cells, 48 hours; FIG. 14
Method: Healthy human buffy coat was purchased from the Sylvan N. Goldman Oklahoma Blood Institute and shipped fresh. Peripheral blood mononuclear cells (PBMCs) were isolated by Ficoll density gradient centrifugation. Red blood cells were lysed with ACK (Ammonium-Chloride-Potassium) lysis buffer. Pan T-cells were then isolated from total PBMCs using negative magnetic bead selection (Miltenyi MACS human Pan-T cell isolation kit). Pan T-cells were then plated on anti-CD3 coated 96-well plates (0.5 μg/mL) in culture media (RPMI1640 with 10% FBS) plus or minus compounds. Supernatant from cultures was collected after 24 and 48 hours. Cytokine [i.e., interleukin-2 (IL-2), interferon gamma (IFNγ)] release in supernatant was measured by HTRF assay (CisBio) according to the kit's instructions. HTRF assay plates were read on a Clariostar plate reader (BMG Labtech) at 665 nm and 620 nm. Data was analyzed and extrapolated to a standard curve according to the HTRF kit instruction in Prism and Excel. Cytokine release fold change was calculated by dividing the pg/mL of cytokine detected by background cytokine released (CD3 stimulation alone). Data was graphed in Prism as the mean of replicates with standard deviation error bars.

[2] = target: T1, CD137 (Homo sapiens, UniProt Q07011); assay: CD137 reporter cell activity washout assay; type: cell-based; set-up: host or cells: Jurkat cells; settings: 10 nM, exposure 30, 60 or 120 minutes, total 6 hours; FIG. 13
Method: Jurkat cells engineered to overexpress CD137 and express a luciferase gene under the NF-κB promoter were purchased from Promega. The reporter cells were incubated with 10 nM of CD137 agonists for the indicated times at 37° C. in RPMI1640 media with 1% FBS. After either 30, 60, or 120 minutes, cells were washed in an excess of culture media and resuspended in 75 μL of fresh media. A no washout condition was also included. All washout conditions were performed in duplicate. Cells then continued to incubate for a total of 6 hours (an additional 5.5, 5, or 4 hours respective to exposure times). After incubation, 75 μL of Bio-Glo reagent (Promega) was added to each well and allowed to equilibrate for 10 minutes at room temperature. Luminescence was read on the Clariostar plate reader (BMG LabTech). Fold induction was calculated by dividing the luminescence signal by background wells (reporter cells with no agonist added). The percent of the maximum fold induction was calculated by dividing the fold induction of the washout time by the fold induction of the no washout condition and multiplying by 100.

[3] = system: MC38 syngeneic tumors; assay: In vivo efficacy in MC38 syngeneic tumors in C57BL/6J B-h4-1BB humanized mice
Method: The MC38 murine colon carcinoma cell line was purchased from Shunran Shanghai Biological Technology Co., Ltd. The cells will be maintained in vitro as monolayer culture in Dulbecco's Modified Eagle's medium (DMEM) supplemented with 10% heat inactivated fetal calf serum, 100 U/mL penicillin and 100 μg/mL streptomycin at 37° C. in an atmosphere of 5% CO2. The tumor cells will be routinely subcultured twice weekly by trypsin-EDTA treatment. Cells growing in an exponential growth phase will be harvested and counted for tumor inoculation. 6-8 week old female C57BL/6J B-h4-1BB humanized mice were subcutaneously injected (in the flank) with MC38 tumor cells (5×10^5) with 0.1 mL PBS for tumor development. Tumor-bearing animals were randomly enrolled into six study groups when the mean tumor size reached approximately 113 mm^3 (Study 1) or 107 mm^3 (Study 2). The test and positive control articles were administrated to the tumor-bearing mice according to predetermined regimens as shown below.
Test articles were formulated in aqueous vehicle (25 mM Histidine, 10% sucrose pH=7) and administered intravenously or intraperitoneally. CD137 monoclonal antibody agonist was administered by intraperitoneal injection in 0.9% saline.
Tumor volume was measured three times a week in two dimensions using a caliper, and the volume was expressed in mm3 using the formula: V=0.5a×b2 where a and b were the long and short diameters of the tumor, respectively. Results are represented by mean and the standard deviation (Mean±SD).
In study 2, mice were sacrificed 21 days after treatment initiation and tumors were harvested for T-cell analysis by flow cytometry. Tumor were cut into small pieces and filtered through a 70 micrometer filter. Lymphocytes were isolated using Histopaque 1083 and resuspended in RPMI 1640 supplemented with 10% fetal bovine serum. Lymphocytes were stained with a cell viability dye (Zombie NIR, Biolegend, #423106) and a panel of antibodies including anti-mouse CD45 (Biolegend, #103138), anti-mouse CD3 (Biolegend, #100328), anti-mouse CD4 (Biolegend, #100438), anti-mouse CD8 (Biolegend, #100759). Stained cells were analysed by Attune N×T Flow Cytometer. T-cell results are expressed as % of CD3+ cells among CD45+ cells. CD8+ T-cell results are expressed as % of CD8+ cells among CD45+CD3+ cells. CD4+ T-cell results are expressed as % of CD4+ cells among CD45+CD3+ cells. Results are represented by mean and the standard deviation (Mean±SD) and the individual values.
Statistical analysis: Data was analyzed using 2way ANOVA or ordinary One-way ANOVA with Dunnett's test for multiple comparisons, and P<0.05 was considered to be statistically significant. Both statistical analysis and biological observations are taken into consideration. ***p<0.001, **p<0.01, *p<0.05.

[4] = target: T1, CD137; assay: CD137 Promega reporter cell activity assay (NF-κB luciferase in Jurkat cells)
Method: CD137 binding multimers were evaluated for CD137 using a Reporter cell activity assay that uses NF-κB luciferase luminescence as a read-out of CD137 activation in Jurkat cells. […] Samples were diluted at concentration expected to give the maximum fold induction and then titrated down in 1/3 dilution series or 1/10 dilution series in a sterile 96 well-plate. […] 50 μl cells were added per well to white cell culture plates.
Cells were co-incubated together with agonists for 6 h at 37° C., 5% CO2. After 6 h Bio-Glo™ was thawed and the assay developed at room-temperature. 75 ul Bio-Glo™ was added per well and incubated for 5-10 min. Luciferase signal was read on a Pherastar plate-reader using MARS program. Data was analysed by transforming the data to x=log (X), then plotting log (agonist) vs. response variable slope (4 parameters) to calculate EC50 values.

T1 sequence (Q07011 24-255): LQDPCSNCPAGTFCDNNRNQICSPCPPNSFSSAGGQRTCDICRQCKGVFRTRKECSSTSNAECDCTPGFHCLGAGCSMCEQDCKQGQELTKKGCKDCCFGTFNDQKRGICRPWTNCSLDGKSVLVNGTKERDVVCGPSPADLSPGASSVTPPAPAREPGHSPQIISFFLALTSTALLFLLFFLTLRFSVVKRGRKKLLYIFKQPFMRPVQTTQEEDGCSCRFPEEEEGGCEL

CCCC[C@@H]1NC(=O)[C@H](Cc2ccc(O)cc2)NC(=O)[C@@H]2CCCN2C(=O)[C@H](CC(=O)O)NC(=O)[C@H](C)NC(=O)[C@H](Cc2ccccc2)NC(=O)[C@@H]2CSCCC(=O)N3CN(CN(C3)C(=O)CCSC[C@@H](C(=O)N[C@@H](C)C(N)=O)NC1=O)C(=O)CCSC[C@H](NC(C)=O)C(=O)N[C@@H](CC(C)(C)C)C(=O)N1CCC[C@H]1C(=O)N[C@@H](CCCCNC(=O)CCc1cn(CCOCCOCCOCCOCCOCCOCCOCCOCCOCCOCCOCCOCCOCCOCCOCCOCCOCCOCCOCCOCCOCCOCCOCCNC(=O)CCOCC(COCCC(=O)NCCOCCOCCOCCOCCOCCOCCOCCOCCOCCOCCOCCOCCOCCOCCOCCOCCOCCOCCOCCOCCOCCOCCOCCn3cc(CCC(=O)NCCCC[C@@H]4NC(=O)[C@@H]5CCCN5C(=O)[C@H](CC(C)(C)C)NC(=O)[C@@H](NC(C)=O)CSCCC(=O)N5CN6CN(C5)C(=O)CCSC[C@H](NC(=O)[C@H](Cc5ccc(O)cc5)NC(=O)[C@@H]5CCCN5C(=O)[C@@H](C)NC4=O)C(=O)N[C@@H](Cc4ccccc4)C(=O)N[C@@H](C)C(=O)N[C@@H](CC(=O)O)C(=O)N4CCC[C@H]4C(=O)N[C@@H](Cc4ccc(O)cc4)C(=O)N[C@@H](CCCC)C(=O)N[C@H](C(=O)N[C@@H](C)C(N)=O)CSCCC6=O)nn3)(COCCC(=O)NCCOCCOCCOCCOCCOCCOCCOCCOCCOCCOCCOCCOCCOCCOCCOCCOCCOCCOCCOCCOCCOCCOCCOCCn3cc(CCC(=O)NCCCC[C@@H]4NC(=O)[C@@H]5CCCN5C(=O)[C@H](CC(C)(C)C)NC(=O)[C@@H](NC(C)=O)CSCCC(=O)N5CN6CN(C5)C(=O)CCSC[C@H](NC(=O)[C@H](Cc5ccc(O)cc5)NC(=O)[C@@H]5CCCN5C(=O)[C@@H](C)NC4=O)C(=O)N[C@@H](Cc4ccccc4)C(=O)N[C@@H](C)C(=O)N[C@@H](CC(=O)O)C(=O)N4CCC[C@H]4C(=O)N[C@@H](Cc4ccc(O)cc4)C(=O)N[C@@H](CCCC)C(=O)N[C@H](C(=O)N[C@@H](C)C(N)=O)CSCCC6=O)nn3)COCCC(=O)NCCOCCOCCOCCOCCOCCOCCOCCOCCOCCOCCOCCOCCOCCOCCOCCOCCOCCOCCOCCOCCOCCOCCOCCn3cc(CCC(=O)NCCCC[C@@H]4NC(=O)[C@@H]5CCCN5C(=O)[C@H](CC(C)(C)C)NC(=O)[C@@H](NC(C)=O)CSCCC(=O)N5CN6CN(C5)C(=O)CCSC[C@H](NC(=O)[C@H](Cc5ccc(O)cc5)NC(=O)[C@@H]5CCCN5C(=O)[C@@H](C)NC4=O)C(=O)N[C@@H](Cc4ccccc4)C(=O)N[C@@H](C)C(=O)N[C@@H](CC(=O)O)C(=O)N4CCC[C@H]4C(=O)N[C@@H](Cc4ccc(O)cc4)C(=O)N[C@@H](CCCC)C(=O)N[C@H](C(=O)N[C@@H](C)C(N)=O)CSCCC6=O)nn3)nn1)C(=O)N[C@H](C)C(=O)N1CCC[C@H]1C(=O)N[C@@H](Cc1ccc(O)cc1)C(=O)N2 [BCY8945]
pro-inflammatory cytokine (IL-2, IFNγ) secretion by T-cells [1]: secrete pro-inflammatory cytokines
cell activity after washout [2]: maintains cell activity after washout
anti-tumour activity (tumor volume), Study 2 ([3]; 30 mg/kg QD × 20, FIG. 8): elicits anti-tumour activity
T-cell percentage in the tumor tissue (% CD3+ among CD45+) ([3]; Study 2, 21 days of treatment, compared to CD137 monoclonal antibody agonist, FIG. 9): elicits a range of increase in T-cell and CD8+ T-cell percentage
CD8+ T-cell percentage in the tumor tissue (% CD8+ among CD45+CD3+) ([3]; Study 2, 21 days of treatment, compared to CD137 monoclonal antibody agonist, FIG. 10): elicits a range of increase in T-cell and CD8+ T-cell percentage
CD4+ T-cell percentage in the tumor tissue (% CD4+ among CD45+CD3+) ([3]; Study 2, 21 days of treatment, compared to CD137 monoclonal antibody agonist, FIG. 11): elicits a range of decease in T-cell percentage
Average Fold EC50 Improvement relative to BCY7845 [4]: 0.13
Average Relative Fold Induction relative to BCY7845 ([4]; Average fold induction for BCY7845 = 6.3): 1.23
CD137 agonism / activation in reporter cells (in words) ([4]; FIGS. 1 to 3 and 15): activates CD137 on the surface of Jurkat reporter cells
